The experiment concerns the target T1, SMARCA2 (Homo sapiens, UniProt P51531).
T1 construct: endogenous in cells; host or cells: HT1080 (CRISPR HiBiT knock-in clone, generated in house)
Kind of experiment: SMARCA2 HiBiT degradation assay (cellular). The format is cell-based. Conditions: table head names A549; for DC50: 6 h incubation, HiBiT-tagged SMARCA2, luminescence read-out, read-out: HiBit A549 SMARCA2 IP (nM) 6 h; for Emax: A549, 6 h incubation, Emax = amount of residual protein remaining in the cell following compound treatment. In general terms: The HiBiT peptide binds its large partner to form an active luciferase.

The text below walks through data of patent US20230024096A1, “BIFUNCTIONAL COMPOUNDS FOR THE TREATMENT OF CANCER” (Hoffmann-La Roche Inc., priority 2019, published 2023).

T1 sequence (P51531 whole entry): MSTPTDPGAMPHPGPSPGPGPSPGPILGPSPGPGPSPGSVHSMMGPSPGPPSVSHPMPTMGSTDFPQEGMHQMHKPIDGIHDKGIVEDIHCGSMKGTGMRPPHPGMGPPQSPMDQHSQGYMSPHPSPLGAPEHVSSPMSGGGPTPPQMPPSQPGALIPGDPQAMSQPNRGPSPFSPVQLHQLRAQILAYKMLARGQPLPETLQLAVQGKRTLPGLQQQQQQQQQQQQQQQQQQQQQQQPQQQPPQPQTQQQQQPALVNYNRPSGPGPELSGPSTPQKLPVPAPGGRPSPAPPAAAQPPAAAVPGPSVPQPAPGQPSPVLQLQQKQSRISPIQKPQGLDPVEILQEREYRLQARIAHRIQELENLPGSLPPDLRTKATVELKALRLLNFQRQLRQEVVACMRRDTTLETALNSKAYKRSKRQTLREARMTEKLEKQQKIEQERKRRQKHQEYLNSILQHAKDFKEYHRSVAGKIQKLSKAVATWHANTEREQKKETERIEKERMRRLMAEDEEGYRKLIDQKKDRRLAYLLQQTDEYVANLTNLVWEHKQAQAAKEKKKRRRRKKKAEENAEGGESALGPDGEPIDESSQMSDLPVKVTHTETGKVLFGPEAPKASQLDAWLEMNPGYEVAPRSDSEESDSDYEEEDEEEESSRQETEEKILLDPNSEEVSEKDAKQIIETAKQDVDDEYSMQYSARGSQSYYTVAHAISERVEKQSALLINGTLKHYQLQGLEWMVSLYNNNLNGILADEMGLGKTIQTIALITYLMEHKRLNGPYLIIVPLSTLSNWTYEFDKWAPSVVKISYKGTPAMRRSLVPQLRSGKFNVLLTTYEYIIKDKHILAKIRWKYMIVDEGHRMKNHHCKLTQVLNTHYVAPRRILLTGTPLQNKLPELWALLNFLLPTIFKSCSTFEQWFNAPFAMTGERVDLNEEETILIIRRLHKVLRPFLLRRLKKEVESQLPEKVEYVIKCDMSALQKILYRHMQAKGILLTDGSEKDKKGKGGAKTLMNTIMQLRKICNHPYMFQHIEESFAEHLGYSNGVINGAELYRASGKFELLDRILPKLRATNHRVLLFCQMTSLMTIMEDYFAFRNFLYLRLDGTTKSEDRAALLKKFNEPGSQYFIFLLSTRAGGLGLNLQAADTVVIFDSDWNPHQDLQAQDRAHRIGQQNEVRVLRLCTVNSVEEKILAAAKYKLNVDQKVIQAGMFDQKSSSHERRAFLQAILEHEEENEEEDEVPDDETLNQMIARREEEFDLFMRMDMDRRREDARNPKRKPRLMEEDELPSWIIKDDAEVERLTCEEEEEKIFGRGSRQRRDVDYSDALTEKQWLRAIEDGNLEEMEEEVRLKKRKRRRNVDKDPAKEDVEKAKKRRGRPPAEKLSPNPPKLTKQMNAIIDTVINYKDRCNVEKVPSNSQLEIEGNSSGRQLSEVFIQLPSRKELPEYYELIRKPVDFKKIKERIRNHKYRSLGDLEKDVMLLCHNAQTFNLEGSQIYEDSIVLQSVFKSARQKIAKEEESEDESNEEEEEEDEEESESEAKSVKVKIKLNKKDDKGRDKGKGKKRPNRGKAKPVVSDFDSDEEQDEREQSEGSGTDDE

As to `Nc1nnc(-c2ccccc2O)cc1N1CC(Oc2ccc(C(=O)N3CCN(C(=O)C4CCN(c5ccc6c(c5)C(=O)N(C5CCC(=O)NC5=O)C6=O)CC4)CC3)c(C(F)(F)F)c2)C1` (racemic) [Example 132, rac-5-[4-[4-[4-[1-[3-amino-6-(2-hydroxyphenyl)pyridazin-4-yl]azetidin-3-yl]oxy-2-(trifluoromethyl)benzoyl]piperazine-1-carbonyl]-1-piperidyl]-2-(2,6-dioxo-3-piperidyl)isoindoline-1,3-dione], the DC50 worked out at 133 nM and the Emax turned out to be 44%. With `Nc1nnc(-c2ccccc2O)cc1N1CCC(C(=O)N2CC3(CCN(C(=O)C4CCN(c5ccc6c(c5)C(=O)N(C5CCC(=O)NC5=O)C6=O)CC4)C3)C2)(c2ccccc2)CC1` (stereo not shown) [Example 186, 5-(4-(2-(1-(3-amino-6-(2-hydroxyphenyl)pyridazin-4-yl)-4-phenylpiperidine-4-carbonyl)-2,6-diazaspiro[3.4]octane-6-carbonyl)piperidin-1-yl)-2-(2,6-dioxopiperidin-3-yl)isoindoline-1,3-dione], the DC50 is 148 nM and the Emax is 42%.

Consider `CCC(Nc1cccc2c1C(=O)N(C1CCC(=O)NC1=O)C2=O)c1cn(CCCCCCCCCN2CCN(c3ccc(N4CCC[C@H](Oc5cc(-c6ccccc6O)nnc5N)C4)cc3)CC2)nn1` (mixture of isomers) [Example 203, 2-(2,6-dioxo-3-piperidyl)-4-[1-[1-[9-[4-[4-[rac-(3S)-3-[3-amino-6-(2-hydroxyphenyl)pyridazin-4-yl]oxy-1-piperidyl]phenyl]piperazin-1-yl]nonyl]triazol-4-yl]propylamino]isoindoline-1,3-dione], for which the DC50 was found to be 216 nM and the Emax came out at 28%.

Turning to `Nc1nnc(-c2ccccc2O)cc1N1CC2CCC(C1)N2c1cccc(OCCN2CCN(C(=O)CN3CCC(c4ccc(OC5CCC(=O)NC5=O)cc4)CC3)CC2)c1` (racemic) [Example 43, rac-3-[4-[1-[2-[4-[2-[3-[3-[3-amino-6-(2-hydroxyphenyl)pyridazin-4-yl]-3,8-diazabicyclo[3.2.1]octan-8-yl]phenoxy]ethyl]piperazin-1-yl]-2-oxo-ethyl]-4-piperidyl]phenoxy]piperidine-2,6-dione], the DC50 turned out to be 32 nM and the Emax is 31%.

On to `Nc1nnc(-c2ccccc2O)cc1N1CC2CCC(C1)N2c1cccc(OCCN2CCN(C(=O)COc3ccc4c(c3)C(=O)N(C3CCC(=O)NC3=O)C4=O)CC2)c1` (racemic) [Example 99, rac-5-[2-[4-[2-[3-[3-[3-amino-6-(2-hydroxyphenyl)pyridazin-4-yl]-3,8-diazabicyclo[3.2.1]octan-8-yl]phenoxy]ethyl]piperazin-1-yl]-2-oxo-ethoxy]-2-(2,6-dioxo-3-piperidyl)isoindoline-1,3-dione], for which the DC50 turned out to be 31 nM and the maximum response (Emax) amounted to 51%. In the same order, the values of `Nc1nnc(-c2ccccc2O)cc1O[C@H]1CCCN(c2ccc(N3CCN(CCCCCCCCCn4cc(CNc5cccc6c5C(=O)N(C5CCC(=O)NC5=O)C6=O)nn4)CC3)cc2)C1` (mixture of isomers) [Example 66, 2-(2,6-dioxo-3-piperidyl)-4-[[1-[9-[4-[4-[rac-(3S)-3-[3-amino-6-(2-hydroxyphenyl)pyridazin-4-yl]oxy-1-piperidyl]phenyl]piperazin-1-yl]nonyl]triazol-4-yl]methylamino]isoindoline-1,3-dione] are 144 nM and 60%.

Turning to `Nc1nnc(-c2ccccc2O)cc1N1CCC(C(=O)N2CCC(C(=O)N3CCN(Cc4ccc5c(c4)C(=O)N(C4CCC(=O)NC4=O)C5=O)CC3)CC2)(c2ccccc2)CC1` (stereo not shown) [Example 174, 5-((4-(1-(1-(3-amino-6-(2-hydroxyphenyl)pyridazin-4-yl)-4-phenylpiperidine-4-carbonyl)piperidine-4-carbonyl)piperazin-1-yl)methyl)-2-(2,6-dioxopiperidin-3-yl)isoindoline-1,3-dione], the DC50 came out at 123 nM and the Emax is 54%. Take `Nc1nnc(-c2ccccc2O)cc1N1CC2CCC(C1)N2c1cccc(CN2CCN(C(=O)CCC3CCN(c4ccc5c(c4)C(=O)N(C4CCC(=O)NC4=O)C5=O)CC3)CC2)n1` (racemic) [Example 133, rac-5-[4-[3-[4-[[6-[3-[3-amino-6-(2-hydroxyphenyl)pyridazin-4-yl]-3,8-diazabicyclo[3.2.1]octan-8-yl]-2-pyridyl]methyl]piperazin-1-yl]-3-oxo-propyl]-1-piperidyl]-2-(2,6-dioxo-3-piperidyl)isoindoline-1,3-dione]: the DC50 amounted to 64 nM and the Emax came to 44%. Regarding `Nc1nnc(-c2ccccc2O)cc1O[C@H]1CCCN(c2ccc(N3CCN(CCCCC(=O)N4CCC(Cn5cc(COc6cccc7c6C(=O)N(C6CCC(=O)NC6=O)C7=O)nn5)CC4)CC3)cc2)C1` (mixture of isomers) [Example 135, 2-(2,6-dioxo-3-piperidyl)-4-[[1-[[1-[5-[4-[4-[rac-(3S)-3-[3-amino-6-(2-hydroxyphenyl)pyridazin-4-yl]oxy-1-piperidyl]phenyl]piperazin-1-yl]pentanoyl]-4-piperidyl]methyl]triazol-4-yl]methoxy]isoindoline-1,3-dione], the DC50 is 382 nM and the Emax is 35%. In the same order, the values of `Nc1nnc(-c2cc(F)ccc2O)cc1N1C2CCC1CN(c1cccc(OCCN3CCN(CC4CCN(c5ccc6c(c5)C(=O)N(C5CCC(=O)NC5=O)C6=O)CC4)CC3)c1)C2` (stereo not shown) [Example 57, 5-[4-[[4-[2-[3-[8-[3-amino-6-(5-fluoro-2-hydroxy-phenyl)pyridazin-4-yl]-3,8-diazabicyclo[3.2.1]octan-3-yl]phenoxy]ethyl]piperazin-1-yl]methyl]-1-piperidyl]-2-(2,6-dioxo-3-piperidyl)isoindoline-1,3-dione] are 406 nM and 67%. For `Nc1nnc(-c2ccccc2O)cc1N1CCN(c2cccc(CN3CCN(C(=O)C4CCN(c5ccc6c(c5)C(=O)N(C5CCC(=O)NC5=O)C6=O)CC4)CC3)c2)C2(CC2)C1` (stereo not shown) [Example 127, 5-(4-(4-(3-(7-(3-amino-6-(2-hydroxyphenyl)pyridazin-4-yl)-4,7-diazaspiro[2.5]octan-4-yl)benzyl)piperazine-1-carbonyl)piperidin-1-yl)-2-(2,6-dioxopiperidin-3-yl)isoindoline-1,3-dione], the Emax worked out at 26%.

As to `Nc1nnc(-c2ccccc2O)cc1N1CCC2(CC1)CN(C(=O)CCC1CCN(c3cccc4c3C(=O)N(C3CCC(=O)NC3=O)C4=O)CC1)CCO2` (stereo not shown) [Example 2, 4-[4-[3-[9-[3-amino-6-(2-hydroxyphenyl)pyridazin-4-yl]-1-oxa-4,9-diazaspiro[5.5]undecan-4-yl]-3-oxo-propyl]-1-piperidyl]-2-(2,6-dioxo-3-piperidyl)isoindoline-1,3-dione], the DC50 is 550 nM and the Emax came to 53%. In the same order, the values of `Nc1nnc(-c2ccccc2O)cc1N1CCC(C(=O)NCC2CCN(C(=O)CN3CCC(c4ccc(NC5CCC(=O)NC5=O)cc4)CC3)CC2)(c2ccccc2)CC1` (stereo not shown) [Example 102, 1-[3-amino-6-(2-hydroxyphenyl)pyridazin-4-yl]-N-[[1-[2-[4-[4-[(2,6-dioxopiperidin-3-yl)amino]phenyl]piperidin-1-yl]acetyl]piperidin-4-yl]methyl]-4-phenylpiperidine-4-carboxamide] are 102 nM and 38%.

Broadly, the Emax is the size of the effect at its maximum, as opposed to the concentration needed.
